Assay results from ChEMBL document CHEMBL4373709 (J Med Chem, 2019).
The source made the active and inactive calls. No cut-off for these calls is given here.

Legend:
[1] = biological target: Neurotensin receptor type 2 (Homo sapiens) (UniProt O95665); experiment: Allosteric modulation of NTR2 (unknown origin) assessed as induction of NT (8 to 13) peptide-mediated beta-arrestin recruitment at >80 uM by pathhunter assay
[2] = biological target: T1, Neurotensin receptor type 1 (Homo sapiens, UniProt P30989); experiment: Allosteric modulation of human GFP-fused PK-tagged Gq-coupled NTR1 expressed in CHOK1 cells assessed as induction of NT (8 to 13) peptide-mediated beta-arrestin recruitment measured after 90 mins by pathhunter assay relative to NT (8 to 13) peptide; assay type: cell-based
T1 sequence (P30989 whole entry, the tested form may be a part): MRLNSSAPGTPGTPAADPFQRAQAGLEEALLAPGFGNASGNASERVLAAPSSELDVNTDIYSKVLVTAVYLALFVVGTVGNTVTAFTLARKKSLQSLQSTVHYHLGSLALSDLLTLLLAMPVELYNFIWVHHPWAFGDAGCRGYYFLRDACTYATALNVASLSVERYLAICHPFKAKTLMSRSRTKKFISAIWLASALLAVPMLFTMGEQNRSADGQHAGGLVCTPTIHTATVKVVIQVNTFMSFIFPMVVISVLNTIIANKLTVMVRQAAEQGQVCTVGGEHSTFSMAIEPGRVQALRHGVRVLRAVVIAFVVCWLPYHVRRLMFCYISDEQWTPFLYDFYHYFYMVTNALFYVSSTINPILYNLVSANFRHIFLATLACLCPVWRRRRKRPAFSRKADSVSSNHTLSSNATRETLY

[3] = biological target: T1, Neurotensin receptor type 1; experiment: Allosteric modulation of human GFP-fused PK-tagged Gq-coupled NTR1 expressed in CHOK1 cells assessed as induction of NT (8 to 13) peptide-mediated beta-arrestin recruitment measured after 90 mins by pathhunter assay; assay type: cell-based

Chain of Neurotensin receptor type 2 (Homo sapiens) (O95665 whole entry, the tested form may be a part): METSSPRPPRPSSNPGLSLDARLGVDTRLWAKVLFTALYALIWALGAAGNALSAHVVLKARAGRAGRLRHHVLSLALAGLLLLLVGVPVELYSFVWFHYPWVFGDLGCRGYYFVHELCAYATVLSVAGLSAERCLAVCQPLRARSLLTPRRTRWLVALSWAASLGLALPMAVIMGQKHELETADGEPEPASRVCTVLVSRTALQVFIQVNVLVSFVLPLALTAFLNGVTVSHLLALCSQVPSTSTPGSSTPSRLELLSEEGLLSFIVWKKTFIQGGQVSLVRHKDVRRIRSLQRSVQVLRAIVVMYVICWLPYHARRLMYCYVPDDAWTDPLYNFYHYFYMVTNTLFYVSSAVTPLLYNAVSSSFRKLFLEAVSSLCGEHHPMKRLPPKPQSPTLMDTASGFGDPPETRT

SMILES | Activity [1] | Emax [2] [%] | EC50 [3] [nM]
COc1ccccc1C1CCN(c2nc(C3(F)CC3)nc3ccc(N(C)C)cc23)CC1 | inactive | 84 | 920
COc1ccccc1C1CCN(c2nc(C3CC3)nc3ccc(N(C)CCO)c(C)c23)CC1 | inactive | 93 | 1260
COc1ccccc1C1CCN(c2nc(C3CC3)nc3ccc(N(C)CCN4CCOCC4)cc23)CC1 | inactive | 92 | 810
COc1ccccc1C1CCN(c2nc(C3CCCC3)nc3ccc(N(C)CCO)cc23)CC1 | inactive | 78 | 3880
COc1ccccc1C1CCN(c2nc(C3CC3)nc3ccc(N(C)C)cc23)CC1 | inactive | 89 | 888
COCCN(C)c1ccc2nc(C3CC3)nc(N3CCC(c4ccccc4OC)CC3)c2c1 | inactive | 79 | 1120
COc1cc2nc(C3CC3)nc(C3CCN(c4ccccc4OC)CC3)c2cc1OC | inactive | – | > 20000
CCCN(C)c1cc2c(N3CCC(c4ccccc4OC)CC3)nc(C3CC3)nc2cc1F | inactive | 68 | 3010
COc1ccccc1C1CCN(c2nc(C3(C)CCC3)nc3ccc(N(C)CCO)cc23)CC1 | inactive | 75 | 1480
COc1cc2nc(C3CC3)nc(N3CCC(c4ccccc4OC)CC3)c2cc1OC | inactive | 89 | 1040
COc1ccccc1C1CCN(c2nc(C3(C(F)(F)F)CC3)nc3ccc(N(C)CCN4CCOCC4)cc23)CC1 | inactive | 78 | 3810
CCCN(C)c1ccc2nc(C3CC3)nc(N3CCC(c4ccccc4OC)CC3)c2c1 | inactive | 68 | 732
COc1ccccc1C1CCN(c2nc(-c3ccccc3)nc3ccc(N(C)CCO)cc23)CC1 | inactive | 70 | 4230
CCCN(C)c1cc2c(N3CCC(c4ccccc4OC)CC3)nc(C3CC3)nc2cc1C | inactive | 86 | 990

Now those with a lower EC50 [3], led by results:

Activity [1] | Emax [2] [%] | EC50 [3] [nM] | SMILES
inactive | 93 | 640 | COc1ccccc1C1CCN(c2nc(C3CC3)nc3ccc(N4CC[C@@H](OC)C4)cc23)CC1
inactive | 88 | 560 | COc1ccccc1C1CCN(c2nc(C3CC3)nc3cc(C)c(N(C)CCO)cc23)CC1
inactive | 80 | 560 | CCN(C)c1ccc2nc(C3CC3)nc(N3CCC(c4ccccc4OC)CC3)c2c1
inactive | 92 | 478 | COc1ccccc1C1CCN(c2nc(C3CC3)nc3ccc(N(C)CCO)cc23)CC1
inactive | 94 | 340 | COc1ccccc1C1CCN(c2nc(C3(C(F)(F)F)CC3)nc3ccc(N(C)CCO)cc23)CC1
inactive | 96 | 270 | COc1ccccc1C1CCN(c2nc(C3(F)CCC3)nc3ccc(N(C)CCO)cc23)CC1
inactive | 95 | 220 | COc1ccccc1C1CCN(c2nc(C3CC3)nc3c(Cl)cc(N(C)CCO)cc23)CC1
